Experimental data as given in patent publication US20260041677A1, “COMPOSITIONS AND METHODS FOR TREATING ADENOID CYSTIC CARCINOMA” (ELEVAR THERAPEUTICS, INC., priority 2022, published 2026).

System: recurrent or metastatic (R/M) adenoid cystic carcinoma (ACC)
Assay: Phase 2 study of rivoceranib in R/M ACC: overall survival, intention-to-treat population
Type: in vivo, human
Settings: 700 mg QD start
From the text: Objectives: Primary objectives were to evaluate safety & tolerability, efficacy by objective response rate (ORR), best overall response (BOR), time to response, duration of response, disease control rate, and duration of disease control. Secondary objectives were to evaluate efficacy as measured by overall survival, progression-free survival and event-free survival. The primary efficacy endpoint was the ORR, defined as the proportion of patients who achieved confirmed complete response (CR) or partial response (PR) per Response Evaluation Criteria in Solid Tumors (RECIST) Version 1.1 (V1.1). The secondary efficacy endpoints were duration of response (DoR) assessed by the investigator and a blinded independent review committee (BIRC), progression-free survival (PFS) assessed at 6 months, 12 months, and 2 years by investigator and BIRC, Time to Progression (TTP) assessed by investigator and BIRC, and overall survival (OS) assessed at 1 and 2 years. Exploratory efficacy endpoints include ORR per CHOI response criteria (based on the journal article, Choi et al., Correlation of computed tomography and positron emission tomography in patients with metastatic gastrointestinal stromal tumor treated at a single institution with imatinib mesylate: proposal of new computed tomography response criteria. J Clin Oncol. 2007; 25(13): 1753-1759) by a blinded independent review […] (BIRC) and disease control rate (DCR) per RECIST V1.1 by Investigator and BIRC. Except for CHOI response criteria, all response endpoints were assessed per RECIST V1.1 by Investigator and BIRC.
The OS was calculated by Overall Survival (months)=12*(Date of death−First dose of rivoceranib+1)/365.25. Median OS were not evaluable. In general, OS rates at 6, 9 and 12 months were similar regardless of prior VEGFR inhibitor treatment or prior systemic anticancer treatment.

For `N#CC1(c2ccc(NC(=O)c3cccnc3NCc3ccncc3)cc2)CCCC1` [Rivoceranib, N-[4-(1-cyanocyclopentyl)phenyl]-2-{[(pyridin-4-yl)methyl]amino}pyridine-3-carboxamide], the “OS rate at 6 months” value (ITT population) was 94.7%, the “OS rate at 9 months” value (ITT population) was 83.5% and the “OS landmark 12-months, % (95% CI)” value (ITT, Total N = 80) was 74.5 (62.5-83.1) %. For the same compound, the “OS landmark 18-months, % (95% CI)” value (ITT, Total N = 80) was 61.7 (48.3-72.5) %, the “OS landmark 12-months, % (95% CI)” value (ITT, VEGFRi-naïve N = 66) was 77.4 (64.2-86.2) % and the “OS landmark 18-months, % (95% CI)” value (ITT, VEGFRi-naïve N = 66) was 66.0 (51.1-77.3) %. The “Median OS” value (ITT, VEGFRi-treated N = 14) was 17.5 months, the “OS landmark 12-months, %” value (ITT, VEGFRi-treated N = 14) was 62.9% and the “OS landmark 18-months, %” value (ITT, VEGFRi-treated N = 14) was 45.8%.
